US10251394B2, “Molecules having pesticidal utility, and intermediates, compositions, and processes, related thereto” (Dow AgroSciences LLC, priority 2016, dated 2019)

Legend:
[1] = test system: Beet Armyworm (Spodoptera exigua); test: Bioassay on Beet Armyworm (BAW), 128-well diet tray assay; format: in vivo; conditions: Beet Armyworm, Table ABC, read-out: BAW rating
Procedure, shortened: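 Percent mortality, averaged over eight wells, was scored after five to seven days at 25° C under 14:10 light-dark. Each well's diet carried 50 μg/cm^2 of test molecule applied in acetone-water (90:10) and dried before one to five second-instar larvae were added.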

[2] = test system: Cabbage Looper (Trichoplusia ni); test: Bioassay on Cabbage Looper (CL), 128-well diet tray assay; format: in vivo; conditions: Cabbage Looper, Table ABC, read-out: CL rating
Procedure, shortened: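 Mortality after five to seven days at 25° C (14:10 photoperiod), averaged over eight wells per compound. Diet in each well carried 50 μg/cm^2 of dried test molecule and received one to five second-instar larvae.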

Cc1cc(C(/C=C(\F)c2ccc(C(=O)NCC(=O)N(C)CC(F)(F)F)c(C(F)(F)F)c2)C(F)(F)F)ccc1Cl (centres unmarked) [PF47, (Z)-4-(3-(4-Chloro-3-methylphenyl)-1,4,4,4-tetrafluorobut-1-en-1-yl)-N-(2-(methyl(2,2,2-trifluoroethyl)amino]-2-oxoethyl)-2-(trifluoromethyl)benzamide]
pest or weed control at 50 µg/cm2 [1]: 50 to 100%
pest or weed control at 50 µg/cm2 [2]: 50 to 100%

Cc1cc(C(/C=C(\F)c2ccc(C(=O)N[C@H](C)C(=O)NCC(F)(F)F)c(C(F)(F)F)c2)C(F)(F)F)ccc1Cl (some centres unmarked) [PF48]
pest or weed control at 50 µg/cm2 [1]: 50 to 100%
pest or weed control at 50 µg/cm2 [2]: 50 to 100%

Cc1cc(C(/C=C(\F)c2ccc(C(=O)N[C@H](C)C(=O)N(C)CC(F)(F)F)c(C(F)(F)F)c2)C(F)(F)F)ccc1Cl (stereo partly drawn) [PF49, 4-((Z)-3-(4-Chloro-3-methylphenyl)-1,4,4,4-tetrafluorobut-1-en-1-yl)-N—((R)-1-(methyl(2,2,2-trifluoroethyl)amino)-1-oxopropan-2-yl)-2-(trifluoromethyl)benzamide]
pest or weed control at 50 µg/cm2 [1]: 50 to 100%
pest or weed control at 50 µg/cm2 [2]: 50 to 100%

Cc1cc(C(/C=C(\F)c2ccc(C(=O)NC3(C(=O)NCC(F)(F)F)CC3)c(C(F)(F)F)c2)C(F)(F)F)ccc1Cl (centres unmarked) [PF50, (Z)-4-(3-(4-Chloro-3-methylphenyl)-1,4,4,4-tetrafluorobut-1-en-1-yl)-N-(1-((2,2,2-trifluoroethyl)carbamoyl)cyclopropyl)-2-(trifluoromethyl)benzamide]
pest or weed control at 50 µg/cm2 [1]: 50 to 100%
pest or weed control at 50 µg/cm2 [2]: 50 to 100%

Cc1cc(C(/C=C(\F)c2ccc(C(=O)NC3(C(=O)N(C)CC(F)(F)F)CC3)c(C(F)(F)F)c2)C(F)(F)F)ccc1Cl (centres unmarked) [PF51, (Z)-4-(3-(4-Chloro-3-methylphenyl)-1,4,4,4-tetrafluorobut-1-en-1-yl)-N-(1-(methyl(2,2,2-trifluoroethyl)carbamoyl)cyclopropyl)-2-(trifluoromethyl)benzamide]
pest or weed control at 50 µg/cm2 [1]: 50 to 100%
pest or weed control at 50 µg/cm2 [2]: 50 to 100%

C[C@@H](NC(=O)c1ccc(/C(F)=C/C(c2cc(Cl)c(Cl)c(Cl)c2)C(C)(F)F)cc1Cl)C(=O)NCC(F)(F)F (stereo partly drawn) [PF60, 2-Chloro-N—((R)-1-oxo-1-((2,2,2-trifluoroethyl)amino)propan-2-yl)-4-((Z)-1,4,4-trifluoro-3-(3,4,5-trichlorophenyl)pent-1-en-1-yl)benzamide]
pest or weed control at 50 µg/cm2 [1]: 50 to 100%
pest or weed control at 50 µg/cm2 [2]: 50 to 100%

CC(F)(F)C(/C=C(\F)c1ccc(C(=O)NC2(C(=O)NCC(F)(F)F)CC2)c(Cl)c1)c1cc(Cl)c(Cl)c(Cl)c1 (centres unmarked) [PF62, (Z)-2-Chloro-4-(1,4,4-trifluoro-3-(3,4,5-trichlorophenyl)pent-1-en-1-yl)-N-(1-((2,2,2-trifluoroethyl)carbamoyl)cyclopropyl)benzamide]
pest or weed control at 50 µg/cm2 [1]: 50 to 100%
pest or weed control at 50 µg/cm2 [2]: 50 to 100%

F/C(=C\C(c1cc(Cl)c(Cl)c(Cl)c1)C(F)(F)F)c1ccc(C(=S)NCC(=S)NCC(F)(F)F)c(C(F)(F)F)c1 (centres unmarked) [PF88, (Z)-4-(1,4,4,4-tetrafluoro-3-(3,4,5-trichlorophenyl)but-1-en-1-yl)-N-(2-thioxo-2-((2,2,2-trifluoroethyl)amino)ethyl)-2-(trifluoromethyl)benzothioamide]
pest or weed control at 50 µg/cm2 [1]: 50 to 100%
pest or weed control at 50 µg/cm2 [2]: 50 to 100%

C[C@@H](NC(=O)c1ccc(/C(F)=C/C(c2cc(Cl)c(Cl)c(Cl)c2)C(F)(F)F)cc1C(F)(F)F)C(=S)NCC(F)(F)F (stereo partly drawn) [PF96, 4-((2)-1,4,4,4-Tetrafluoro-3-(3,4,5-trichlorophenyl)but-1-en-1-yl)-N—((R)-1-thioxo-1-((2,2,2-trifluoroethyl)amino)propan-2-yl)-2-(trifluoromethyl)benzamide]
pest or weed control at 50 µg/cm2 [1]: 50 to 100%
pest or weed control at 50 µg/cm2 [2]: 50 to 100%

O=C(NC1(C(=S)NCC(F)(F)F)CC1)c1ccc(/C(F)=C/C(c2cc(Cl)c(Cl)c(Cl)c2)C(F)(F)F)cc1C(F)(F)F (centres unmarked) [PF98, (Z)-4-(1,4,4,4-Tetrafluoro-3-(3,4,5-trichlorophenyl)but-1-en-1-yl)-N-(1-((2,2,2-trifluoroethyl)carbamothioyl)cyclopropyl)-2-(trifluoromethyl)benzamide]
pest or weed control at 50 µg/cm2 [1]: 50 to 100%
pest or weed control at 50 µg/cm2 [2]: 50 to 100%
